# According to PMC9067978, “Design, synthesis, and molecular docking studies of novel pomalidomide-based PROTACs as potential anti-cancer agents targeting EGFR^WT and EGFR^T790M” (Journal of Enzyme Inhibition and Medicinal Chemistry, 2022):
# Biological target: T1, EGFR (Homo sapiens, UniProt P00533)
# T1 construct: EGFR degradation activities of compounds in A549 cells; endogenous in cells; host or cells: A549
# Test: Western blotting, EGFR degradation in A549 cells
# Type: cell-based
# Procedure: Following this, the target compounds 15–21 tethering various E3 ligases ligand were chosen as representative PROTACs for further degradation study based on temporal data.
# Figure 4. (A) EGFR degradation activities of compounds in A549 cells. Cells were treated for 48 h with concentration of 0.1 and 1 µM. (B) Effects of concentration-dependent EGFR degradation by compounds 15–21 in A549 cell lines. Cells were treated for 48 h with a concentration from 1 nM to 10 µM. EGFR protein was examined by Western blotting analysis and EGFR degradation rate was quantified by densitometry and normalised to the corresponding density of β-actin protein (n ¼ 3). TEXT PRINTED IN THE PICTURE: (B) Comp 15: DC50 = 43.4 nm | (B) Comp 16: DC50= 32.9 nm DOUBTS OF THE COPYIST ABOUT THIS PICTURE: Comp 15, DC50: 43.4 is small blurred print; the 3 could be 8 and the digits are not certain / Comp 16, DC50: 32.9 is small blurred print; the 3 could be 8 and the 9 could be 8 or 0
# We set nine concentration gradients ranging from […] to 10 µM to determine the degradation activity of all tested compounds and calculated the DC50 (concentration that caused deletion of 50% of EGFR) values.
# At a concentration of 100 nM, the time-dependent degradation activities of compounds 15–21 were also examined (Figure 5(A)).
# Figure 5. (A) EGFR time-dependent degradation by compound 16 in A549 cell lines. Cells were treated with100 nM of 15–21 for indicated time points. Western blotting was used to evaluate EGFR protein, and densitometry was used to measure EGFR degradation, which was adjusted to the density of β-actin protein (n ¼2). (B) Compounds 15 and 16 have EGFR degradation and phosphorylation inhibitory action in A549 cells. The cells were exposed to concentrations of 0.1, 0.3, and 1 µM. Erlotinib were utilised for comparison. TEXT PRINTED IN THE PICTURE: (A) Comp 15: Dmax = 85 % @ 96 h; Degradation: 9 (4 h; 100 nM); Degradation: 22 (8 h; 100 nM); Degradation: 42 (12 h; 100 nM); Degradation: 83 (24 h; 100 nM); Degradation: 84 (36 h; 100 nM); Degradation: 82 (48 h; 100 nM); Degradation: 82 (72 h; 100 nM); Degradation: 85 (96 h; 100 nM) | (A) Comp 16: Dmax = 96 % @72 h; Degradation: 32 (4 h; 100 nM); Degradation: 43 (8 h; 100 nM); Degradation: 67 (12 h; 100 nM); Degradation: 69 (24 h; 100 nM); Degradation: 78 (36 h; 100 nM); Degradation: 85 (48 h; 100 nM); Degradation: 96 (72 h; 100 nM); Degradation: 94 (96 h; 100 nM) DOUBTS OF THE COPYIST ABOUT THIS PICTURE: Comp 15, Dmax: print is blurred, 85 % @ 96 h is the best reading (85 or 86) / Comp 16, Dmax: print is small and blurred, 96 % @72 h is the best reading (96 or 95; the % sign is unclear) / Comp 15, Degradation row: print is blurred, 83/84/82/82/85 are best readings (3, 5, 8 are hard to tell apart) / Comp 16, Degradation row: print is blurred, 67/69/78/85/96/94 are best readings (5, 6, 8, 9 are hard to tell apart) / The Degradation rows are printed under the blot lanes with no unit. The value 0 under the 0.1 % DMSO control lane was not assigned to any compound.
# Cells were seeded in 6-well plates at 1 × 10^6 per well, incubated at 37 °C with 5% CO2 for 24 h before drug exposure. Cells were treated with different concentrations of synthesised compounds for […], then collected and suspended in lysis buffer (Beyotime) and centrifuged for 20 min at 12000 rpm, later removed the insoluble material. […] The results were detected by an enhanced chemiluminescence system (Mill-pore). […]
# T1 sequence (P00533 25-1210): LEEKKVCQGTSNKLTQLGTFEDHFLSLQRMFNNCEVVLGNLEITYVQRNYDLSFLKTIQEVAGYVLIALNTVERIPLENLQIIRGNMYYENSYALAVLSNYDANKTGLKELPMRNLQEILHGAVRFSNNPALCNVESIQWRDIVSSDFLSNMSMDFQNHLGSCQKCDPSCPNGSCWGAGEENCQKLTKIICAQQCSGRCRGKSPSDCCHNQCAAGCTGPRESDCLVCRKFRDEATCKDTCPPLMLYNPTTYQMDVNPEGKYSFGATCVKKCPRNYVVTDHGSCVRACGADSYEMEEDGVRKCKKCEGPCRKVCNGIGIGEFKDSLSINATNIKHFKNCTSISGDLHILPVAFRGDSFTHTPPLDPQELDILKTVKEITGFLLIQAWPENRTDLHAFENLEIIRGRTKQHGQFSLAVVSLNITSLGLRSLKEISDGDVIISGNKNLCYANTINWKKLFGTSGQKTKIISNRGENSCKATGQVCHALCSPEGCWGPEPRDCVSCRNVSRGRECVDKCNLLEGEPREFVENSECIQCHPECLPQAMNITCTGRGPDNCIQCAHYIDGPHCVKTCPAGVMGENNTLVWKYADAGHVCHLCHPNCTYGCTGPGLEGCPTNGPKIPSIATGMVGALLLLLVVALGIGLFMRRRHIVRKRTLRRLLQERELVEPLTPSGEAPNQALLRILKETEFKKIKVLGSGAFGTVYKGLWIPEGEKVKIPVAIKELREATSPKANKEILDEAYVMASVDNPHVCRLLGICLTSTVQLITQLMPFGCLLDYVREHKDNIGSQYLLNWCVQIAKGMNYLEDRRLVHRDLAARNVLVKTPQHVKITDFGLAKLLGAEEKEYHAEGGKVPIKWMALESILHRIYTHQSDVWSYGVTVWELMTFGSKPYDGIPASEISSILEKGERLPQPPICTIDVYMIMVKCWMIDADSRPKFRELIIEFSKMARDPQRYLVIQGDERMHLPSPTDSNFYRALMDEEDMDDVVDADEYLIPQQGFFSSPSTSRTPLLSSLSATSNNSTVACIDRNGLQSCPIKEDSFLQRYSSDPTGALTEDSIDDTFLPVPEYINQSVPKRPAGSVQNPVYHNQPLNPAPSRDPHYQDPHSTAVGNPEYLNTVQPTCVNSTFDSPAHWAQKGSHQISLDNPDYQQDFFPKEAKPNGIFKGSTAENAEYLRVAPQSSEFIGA
smiles,measurement,setting,value
"Cn1c(=O)c(C(=O)NNCCOCCOCC(=O)Nc2cccc3c2C(=O)N(C2CCC(=O)NC2=O)C3=O)nc2ccccc21 (stereo not drawn) [Compound 16, N-(2-(2,6-dioxopiperidin-3-yl)-1,3-dioxoisoindolin-4-yl)-2-(2-(2-(2-(4-methyl-3-oxo-3,4-dihydroquinoxaline-2-carbonyl) hydrazinyl)ethoxy)ethoxy) acetamide]",Dmax at 0.1 µM,"A549, A549 cells, 100 nM, time course, reached at 96 h (15) and 72 h (16), read-out: Dmax, maximum EGFR degradation rate",96%
same,DC50,"A549 cells, 48 h, Western blotting densitometry, read-out: DC50 (concentration that caused deletion of 50% of EGFR)",0.0329 µM
same,"concentration-dependent EGFR degradation, in words","A549 cells, 48 h, concentration series up to 10 µM",hook effect
